The target in assay [1] is T1, Nuclear receptor subfamily 0 group B member 1 (Homo sapiens, UniProt P51843).
T1 sequence (P51843 whole entry): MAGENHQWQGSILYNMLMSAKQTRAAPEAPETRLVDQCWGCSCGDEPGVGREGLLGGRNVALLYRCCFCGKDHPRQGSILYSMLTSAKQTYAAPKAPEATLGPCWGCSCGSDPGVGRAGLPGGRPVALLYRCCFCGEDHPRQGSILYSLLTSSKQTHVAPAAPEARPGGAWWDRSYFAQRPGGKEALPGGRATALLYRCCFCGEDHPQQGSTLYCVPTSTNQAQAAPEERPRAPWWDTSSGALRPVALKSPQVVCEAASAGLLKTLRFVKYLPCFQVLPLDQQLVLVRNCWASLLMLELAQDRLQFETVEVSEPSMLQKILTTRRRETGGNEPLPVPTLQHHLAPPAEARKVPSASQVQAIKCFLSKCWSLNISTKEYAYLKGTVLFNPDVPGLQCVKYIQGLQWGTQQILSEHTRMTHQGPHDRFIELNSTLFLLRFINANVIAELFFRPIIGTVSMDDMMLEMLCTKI
Kind of assay: Luminescence-based cell-based high throughput dose response assay for inhibitors of the orphan nuclear receptor subfamily 0, group B, member 1 (DAX1; NR0B1). [Related pubchem assays (depositor defined):AID504766, AID504790]. The assay is classed as functional.

The subject of the next assay is HEK293. The experiment in a line: cells. Particulars: Homo sapiens. It counts as functional, cell-based.
For another assay, the target named is T2, Caspase-3 (Homo sapiens, UniProt P42574).
T2 sequence (P42574 whole entry): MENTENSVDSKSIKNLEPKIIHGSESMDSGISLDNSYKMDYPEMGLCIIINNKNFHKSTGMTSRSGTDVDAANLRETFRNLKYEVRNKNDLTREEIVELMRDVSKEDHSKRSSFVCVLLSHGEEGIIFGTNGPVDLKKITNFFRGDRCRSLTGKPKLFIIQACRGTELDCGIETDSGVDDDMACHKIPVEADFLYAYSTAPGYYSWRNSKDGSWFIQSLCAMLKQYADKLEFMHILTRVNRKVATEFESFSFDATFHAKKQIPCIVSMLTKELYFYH
Kind of assay: SAR Analysis of small molecule inhibitors of Sentrin-specific proteases (SENPs) using a Caspase-3 Selectivity assay. [Related pubchem assays (depositor defined):AID2540, AID2599, AID434973, AID489001]. The assay is classed as functional.

Assay [2] has as its target T3, Sentrin-specific protease 6 (Homo sapiens, UniProt Q9GZR1).
T3 sequence (Q9GZR1 whole entry): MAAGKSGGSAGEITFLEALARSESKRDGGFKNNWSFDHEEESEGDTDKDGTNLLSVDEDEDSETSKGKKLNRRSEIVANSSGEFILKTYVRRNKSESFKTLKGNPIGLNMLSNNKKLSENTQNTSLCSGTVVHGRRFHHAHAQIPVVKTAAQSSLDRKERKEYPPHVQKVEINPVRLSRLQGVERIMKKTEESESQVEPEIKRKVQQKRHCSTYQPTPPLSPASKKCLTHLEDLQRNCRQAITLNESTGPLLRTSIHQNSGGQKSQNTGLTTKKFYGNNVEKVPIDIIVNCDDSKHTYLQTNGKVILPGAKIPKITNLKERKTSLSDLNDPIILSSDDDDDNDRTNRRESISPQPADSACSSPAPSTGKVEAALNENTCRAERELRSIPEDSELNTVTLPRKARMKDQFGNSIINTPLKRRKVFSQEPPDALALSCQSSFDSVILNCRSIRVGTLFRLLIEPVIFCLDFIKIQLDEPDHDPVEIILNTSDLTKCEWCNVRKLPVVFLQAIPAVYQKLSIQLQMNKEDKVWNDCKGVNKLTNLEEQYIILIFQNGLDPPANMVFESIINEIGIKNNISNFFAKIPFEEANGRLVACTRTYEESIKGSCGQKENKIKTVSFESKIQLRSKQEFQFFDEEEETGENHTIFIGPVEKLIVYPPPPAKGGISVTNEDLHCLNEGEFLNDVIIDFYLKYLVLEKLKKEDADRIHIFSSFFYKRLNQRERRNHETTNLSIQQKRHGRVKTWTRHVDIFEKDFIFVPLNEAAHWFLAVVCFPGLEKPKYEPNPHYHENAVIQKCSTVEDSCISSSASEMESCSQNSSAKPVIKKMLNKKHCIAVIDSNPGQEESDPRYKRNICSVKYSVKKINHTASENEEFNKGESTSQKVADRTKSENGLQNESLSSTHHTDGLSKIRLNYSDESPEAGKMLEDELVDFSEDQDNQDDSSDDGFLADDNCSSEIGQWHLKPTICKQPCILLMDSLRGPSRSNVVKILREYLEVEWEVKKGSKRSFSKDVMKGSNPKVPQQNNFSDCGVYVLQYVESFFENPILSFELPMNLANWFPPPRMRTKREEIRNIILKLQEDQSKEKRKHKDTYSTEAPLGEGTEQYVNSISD
Kind of assay: SAR Analysis of small molecule inhibitors of Sentrin-specific protease 6 (SENP6) using a Luminescent assay. [Related pubchem assays (depositor defined):AID2582, AID2599]. The assay is classed as functional.

The target of assay [3] is T4, Sentrin-specific protease 7 (Homo sapiens, UniProt Q9BQF6).
T4 sequence (Q9BQF6 whole entry): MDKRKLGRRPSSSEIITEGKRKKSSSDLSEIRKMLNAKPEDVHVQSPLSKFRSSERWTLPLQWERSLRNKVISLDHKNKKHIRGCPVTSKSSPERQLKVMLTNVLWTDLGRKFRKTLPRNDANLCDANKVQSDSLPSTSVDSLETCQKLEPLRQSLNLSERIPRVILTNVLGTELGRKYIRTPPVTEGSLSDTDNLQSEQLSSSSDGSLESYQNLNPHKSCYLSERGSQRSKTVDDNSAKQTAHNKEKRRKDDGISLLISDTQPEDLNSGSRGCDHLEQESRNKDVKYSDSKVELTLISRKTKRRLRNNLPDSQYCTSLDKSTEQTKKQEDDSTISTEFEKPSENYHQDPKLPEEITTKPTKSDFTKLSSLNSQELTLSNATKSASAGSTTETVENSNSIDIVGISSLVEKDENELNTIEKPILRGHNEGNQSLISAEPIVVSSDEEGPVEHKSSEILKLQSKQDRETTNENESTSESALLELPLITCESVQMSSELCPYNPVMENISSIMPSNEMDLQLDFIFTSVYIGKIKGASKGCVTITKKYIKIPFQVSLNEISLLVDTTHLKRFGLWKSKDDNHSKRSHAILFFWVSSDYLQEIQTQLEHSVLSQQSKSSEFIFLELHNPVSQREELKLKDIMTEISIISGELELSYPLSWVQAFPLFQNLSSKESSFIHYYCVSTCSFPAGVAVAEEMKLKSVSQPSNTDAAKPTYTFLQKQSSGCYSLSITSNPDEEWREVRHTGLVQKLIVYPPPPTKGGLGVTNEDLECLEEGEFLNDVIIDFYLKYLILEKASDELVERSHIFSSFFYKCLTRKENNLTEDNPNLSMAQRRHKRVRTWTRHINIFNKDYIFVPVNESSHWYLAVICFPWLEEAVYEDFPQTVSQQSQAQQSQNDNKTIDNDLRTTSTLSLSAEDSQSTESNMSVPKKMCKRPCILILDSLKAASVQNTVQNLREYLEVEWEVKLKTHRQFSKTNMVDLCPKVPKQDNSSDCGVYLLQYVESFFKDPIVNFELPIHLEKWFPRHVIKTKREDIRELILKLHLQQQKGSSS
Kind of assay: inhibition of human SENP7 cleavage activity – biochemical, luminescence, SAR follow-up (AID 504497). The assay is classed as functional.

In assay [4] the target is T5, Sentrin-specific protease 8 (Homo sapiens, UniProt Q96LD8).
T5 sequence (Q96LD8 whole entry): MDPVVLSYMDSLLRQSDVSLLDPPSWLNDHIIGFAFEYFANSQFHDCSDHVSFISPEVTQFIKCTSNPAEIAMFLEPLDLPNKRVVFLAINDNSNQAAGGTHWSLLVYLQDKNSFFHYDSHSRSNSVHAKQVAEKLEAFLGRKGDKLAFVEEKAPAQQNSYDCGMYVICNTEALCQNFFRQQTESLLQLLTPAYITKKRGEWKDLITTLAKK
The experiment in a line: inhibition of human SENP8 cleavage activity – biochemical, luminescence, SAR follow-up (AID 504501). It counts as functional.

A further assay addresses Cysteine protease ATG4B (Homo sapiens, UniProt Q9Y4P1). It counts as functional.
Another assay concerns the target Phospholipase A2 (Homo sapiens, UniProt P04054). The assay is classed as functional.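 Also: confirmatory dose-response counterscreen on phospholipase A2, testing hits that came from an ultra-high-throughput screen for ATG4B inhibitors.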
The target in the next assay is Genome polyprotein (dengue virus type 2, UniProt P29990). Kind of assay: flavivirus cap methylation enzyme inhibition – biochemical, confirmation dose response, primary screen (AID 588689). The assay is classed as functional.
Assay [5] deals with T6, Short transient receptor potential channel 4 (Mus musculus, UniProt Q9QUQ5).
T6 sequence (Q9QUQ5 whole entry): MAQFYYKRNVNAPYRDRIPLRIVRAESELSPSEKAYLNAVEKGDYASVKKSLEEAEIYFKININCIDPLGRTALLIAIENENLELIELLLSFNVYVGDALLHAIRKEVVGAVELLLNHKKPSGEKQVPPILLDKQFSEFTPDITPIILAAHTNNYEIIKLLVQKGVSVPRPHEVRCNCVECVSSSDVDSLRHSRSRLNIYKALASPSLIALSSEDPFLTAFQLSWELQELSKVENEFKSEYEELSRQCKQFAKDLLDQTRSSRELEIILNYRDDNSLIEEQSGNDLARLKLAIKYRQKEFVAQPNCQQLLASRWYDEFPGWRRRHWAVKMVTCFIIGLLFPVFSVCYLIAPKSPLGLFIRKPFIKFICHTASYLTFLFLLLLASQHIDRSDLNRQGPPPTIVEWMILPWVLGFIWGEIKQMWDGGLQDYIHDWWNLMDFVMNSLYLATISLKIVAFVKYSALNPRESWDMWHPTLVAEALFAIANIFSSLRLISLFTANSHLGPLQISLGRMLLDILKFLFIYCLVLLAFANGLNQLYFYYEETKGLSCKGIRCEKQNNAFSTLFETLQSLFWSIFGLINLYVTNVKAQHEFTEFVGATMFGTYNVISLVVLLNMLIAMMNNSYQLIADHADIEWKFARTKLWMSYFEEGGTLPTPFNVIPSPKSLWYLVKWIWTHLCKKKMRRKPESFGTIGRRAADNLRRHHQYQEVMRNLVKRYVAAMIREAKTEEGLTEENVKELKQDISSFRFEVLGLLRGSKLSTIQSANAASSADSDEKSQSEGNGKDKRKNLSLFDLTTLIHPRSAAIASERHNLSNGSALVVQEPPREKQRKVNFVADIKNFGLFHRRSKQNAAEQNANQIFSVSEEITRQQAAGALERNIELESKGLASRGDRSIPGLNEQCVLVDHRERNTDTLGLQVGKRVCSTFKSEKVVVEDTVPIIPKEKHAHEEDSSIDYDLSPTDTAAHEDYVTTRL
Kind of assay: block of DAMGO-driven TRPC4 calcium entry – cell-based, HEK293 TRPC4/mu-opioid, Fluo-4 calcium, dose response (AID 434942).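 Also: potency of inhibitors blocking the TRPC4 calcium response.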 It counts as functional.

Assay [6] addresses T7, Type-1 angiotensin II receptor (Homo sapiens, UniProt P30556).
T7 sequence (P30556 whole entry): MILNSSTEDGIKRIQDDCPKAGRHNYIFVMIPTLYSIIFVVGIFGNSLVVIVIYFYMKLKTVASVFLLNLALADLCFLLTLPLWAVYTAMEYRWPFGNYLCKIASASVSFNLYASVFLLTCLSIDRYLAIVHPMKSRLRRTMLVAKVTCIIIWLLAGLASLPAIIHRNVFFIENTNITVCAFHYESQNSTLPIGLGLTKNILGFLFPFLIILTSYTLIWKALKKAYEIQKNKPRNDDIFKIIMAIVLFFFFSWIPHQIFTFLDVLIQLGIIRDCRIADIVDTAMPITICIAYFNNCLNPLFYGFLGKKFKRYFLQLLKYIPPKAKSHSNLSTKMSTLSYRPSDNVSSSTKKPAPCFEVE
Kind of assay: antagonism of angiotensin II type 1 receptor – cell-based, uHTS hits, selectivity assay for APJ receptor antagonist project, dose response (AID 463214).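 Also: antagonist potency against angiotensin II stimulated AT1 response.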 It counts as functional.

The next assay addresses Beta-galactosidase (Escherichia coli, UniProt Q8VNN2). The experiment in a line: PubChem AID 485352. It counts as functional.
The nature of assay [7]: inhibition of ARNT PAS-B/TACC3 complex formation – biochemical, AlphaScreen, cherry-picked samples, confirmation (AID 651703).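 Also: His-tagged ARNT PAS-B domain paired with GST-TACC3 E629A dimer coactivator fragment; potency of inhibitors that break up the complex and lower AlphaScreen signal.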 The assay is classed as functional, Homo sapiens. On the technique in general: Bead proximity is the source of the signal in Alpha formats.

Each structure is given as a SMILES string. Calls of active or inactive are those of the source.

As usually defined, the IC50 is the concentration needed to halve the response being measured. One may read the EC50 as the concentration needed to bring the measured effect to its halfway point. A word on the AC50: it is the concentration at which the activity in the assay is half-maximal.

Sequence of Beta-galactosidase (Q8VNN2 whole entry, the tested form may be a part): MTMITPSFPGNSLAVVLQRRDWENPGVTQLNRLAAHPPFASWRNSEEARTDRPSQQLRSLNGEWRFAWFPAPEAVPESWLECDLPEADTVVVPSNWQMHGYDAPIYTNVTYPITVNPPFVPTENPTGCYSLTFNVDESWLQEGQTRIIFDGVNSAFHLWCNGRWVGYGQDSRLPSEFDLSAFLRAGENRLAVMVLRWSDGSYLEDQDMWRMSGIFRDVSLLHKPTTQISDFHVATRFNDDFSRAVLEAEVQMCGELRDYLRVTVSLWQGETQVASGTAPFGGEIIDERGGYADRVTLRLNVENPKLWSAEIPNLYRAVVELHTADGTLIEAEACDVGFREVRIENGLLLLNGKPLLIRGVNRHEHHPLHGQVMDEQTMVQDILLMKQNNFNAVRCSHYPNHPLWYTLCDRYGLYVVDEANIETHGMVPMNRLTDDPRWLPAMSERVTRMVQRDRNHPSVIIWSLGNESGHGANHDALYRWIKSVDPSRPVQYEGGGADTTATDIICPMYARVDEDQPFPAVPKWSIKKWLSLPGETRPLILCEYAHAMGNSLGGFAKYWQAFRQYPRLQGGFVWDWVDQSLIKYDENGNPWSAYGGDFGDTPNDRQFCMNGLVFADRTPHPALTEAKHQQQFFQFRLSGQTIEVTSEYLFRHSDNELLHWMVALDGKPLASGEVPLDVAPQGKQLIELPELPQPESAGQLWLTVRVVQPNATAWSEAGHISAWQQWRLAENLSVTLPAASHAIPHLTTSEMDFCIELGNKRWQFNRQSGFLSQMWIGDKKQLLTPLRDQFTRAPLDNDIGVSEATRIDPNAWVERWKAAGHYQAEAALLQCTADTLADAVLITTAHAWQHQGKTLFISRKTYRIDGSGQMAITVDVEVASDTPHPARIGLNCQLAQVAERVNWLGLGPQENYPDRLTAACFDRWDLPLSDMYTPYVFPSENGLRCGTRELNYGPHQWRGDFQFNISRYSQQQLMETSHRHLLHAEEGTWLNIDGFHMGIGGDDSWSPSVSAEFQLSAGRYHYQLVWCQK
Sequence of Cysteine protease ATG4B (Q9Y4P1 whole entry): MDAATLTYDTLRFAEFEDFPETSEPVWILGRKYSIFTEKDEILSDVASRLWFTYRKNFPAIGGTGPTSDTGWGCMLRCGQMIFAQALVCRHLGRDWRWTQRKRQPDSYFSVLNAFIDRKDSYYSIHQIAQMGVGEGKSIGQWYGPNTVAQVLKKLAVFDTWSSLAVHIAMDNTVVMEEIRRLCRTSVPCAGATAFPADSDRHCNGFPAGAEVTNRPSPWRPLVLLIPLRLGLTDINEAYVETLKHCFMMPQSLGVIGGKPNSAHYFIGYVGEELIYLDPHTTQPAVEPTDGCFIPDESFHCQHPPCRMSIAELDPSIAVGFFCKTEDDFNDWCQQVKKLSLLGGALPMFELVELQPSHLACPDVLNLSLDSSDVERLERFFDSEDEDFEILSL
Sequence of Phospholipase A2 (P04054 whole entry): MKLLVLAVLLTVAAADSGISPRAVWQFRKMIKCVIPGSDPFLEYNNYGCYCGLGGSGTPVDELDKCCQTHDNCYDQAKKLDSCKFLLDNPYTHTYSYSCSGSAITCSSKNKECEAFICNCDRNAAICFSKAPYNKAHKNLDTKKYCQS
Sequence of Genome polyprotein (P29990 2492-3391 limits assumed): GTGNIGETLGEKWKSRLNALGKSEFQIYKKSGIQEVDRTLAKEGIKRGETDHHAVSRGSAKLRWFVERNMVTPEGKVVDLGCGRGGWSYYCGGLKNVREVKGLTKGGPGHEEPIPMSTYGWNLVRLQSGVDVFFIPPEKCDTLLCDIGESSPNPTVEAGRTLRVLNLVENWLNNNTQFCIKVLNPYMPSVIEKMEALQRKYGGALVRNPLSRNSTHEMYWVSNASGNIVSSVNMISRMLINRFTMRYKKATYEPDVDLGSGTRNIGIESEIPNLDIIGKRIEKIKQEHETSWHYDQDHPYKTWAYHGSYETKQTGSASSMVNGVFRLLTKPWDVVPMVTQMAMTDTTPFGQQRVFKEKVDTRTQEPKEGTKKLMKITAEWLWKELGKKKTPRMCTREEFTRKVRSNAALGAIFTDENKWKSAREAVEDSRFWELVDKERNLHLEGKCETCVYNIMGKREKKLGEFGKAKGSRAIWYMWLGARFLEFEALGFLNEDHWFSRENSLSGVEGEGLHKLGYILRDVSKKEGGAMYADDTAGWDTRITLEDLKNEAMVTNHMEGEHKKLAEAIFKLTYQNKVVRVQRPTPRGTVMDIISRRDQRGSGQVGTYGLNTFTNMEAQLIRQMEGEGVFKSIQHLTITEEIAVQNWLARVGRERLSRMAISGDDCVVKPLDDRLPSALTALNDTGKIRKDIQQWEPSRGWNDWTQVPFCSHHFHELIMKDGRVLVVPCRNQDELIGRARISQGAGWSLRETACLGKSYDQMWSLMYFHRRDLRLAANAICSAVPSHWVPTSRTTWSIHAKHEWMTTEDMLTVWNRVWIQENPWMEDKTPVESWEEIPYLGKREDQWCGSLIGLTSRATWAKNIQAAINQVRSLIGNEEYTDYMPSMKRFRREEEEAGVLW

Take `O=C(O)Cc1nn(Cc2ccc(Cl)cc2)c(=O)c2ccccc12`: the IC50 (in [1]; in the assay with HEK293) was > 67.5 µM (inactive) in each case.

`Cc1nn(CC(=O)Nc2sc3c(c2C#N)CCCC3)c(C)c1I`: the IC50 (on Caspase-3; in assay [2]; in [3]; in assay [4]) was > 99 µM (inactive) in each case.

Turning to `CN(C)CCN(C(=O)c1ccc(S(=O)(=O)N2CCCCCC2)cc1)c1nc2cc3c(cc2s1)OCCO3`, the IC50 (on Caspase-3; in [2]; in assay [3]; in [4]) was > 99 µM (inactive) in each case.

As for `CCCCCCOc1ccc(N2C(=O)CC(SC(=N)N/N=C(\C)c3cccs3)C2=O)cc1` (stereo not drawn), the values for the IC50 on Cysteine protease ATG4B and at Phospholipase A2 were 9.46 µM (active) and 5.58 µM (active), respectively.

Regarding `Cc1ccc(/C=C2\SC(=S)N(C(Cc3ccccc3)C(=O)O)C2=O)cc1` (stereo not drawn), the IC50 at Genome polyprotein was 39.1 µM (active); at Cysteine protease ATG4B, 9.14 µM (active); on Phospholipase A2, 10.6 µM (active). Also, the EC50 in [5] was 5.96 µM (active).

Regarding `CC(=O)c1csc(COc2ccc(Cl)cc2)n1`, the IC50 (in assay [1]; with HEK293) was > 67.6 µM (inactive) in each case.

For the compound `O=C(CNC(=O)c1ccc(Br)o1)OCC(=O)c1cccc([N+](=O)[O-])c1`, the IC50 in assay [6] was 27.3 µM (not active). The EC50 on Beta-galactosidase was > 40 µM (inactive).

`Cc1ccc(/C=N/NC(=S)N2CCOCC2)cc1`: the IC50 in assay [6] was 8.6 µM (active). Moreover, in assay [7], the AC50 is 112 µM (active). The EC50 at Beta-galactosidase is > 40 µM (inactive).
